Data as given in patent publication US11472776B2, “Quinazolinones that inhibit the formation of tau oligomers and their method of use” (OLIGOMERIX INC., priority 2016, dated 2022).
pIC50: −log10 of the molar value. Counter-ions that a name gives are not always drawn.

Key:
[1] = target: T1, recombinant human tau 4R2N (Homo sapiens (Human), UniProt P10636); test: Confirmatory Assay (CONFA), SDS-PAGE quantification of tau monomer and oligomers; format: biochemical; details: tau target 300 nM, 3 hours at room temperature, compound 0.098 uM-50 uM
Protocol: (§1) Bacterial recombinant human tau 4R2N (the largest isoform of tau in the central nervous system, 441 amino acids in length, Seq. ID 1) constructs with either 6×-His or StrepII N-terminal epitope tags were purified from bacterial lysate using denaturing conditions to prepare tau in its monomeric form.
CONFA Assay: Confirmatory Assay (CONFA) used as a secondary screen for confirming the mechanism of action of compounds identified as hits using the ALA assay. The assay is performed using a similar procedure as ALA except that it utilizes SDS-PAGE for visualization and quantification of tau monomer and aggregated species (dimer, trimer, tetramer, pentamer, etc.). Only a single construct of tau without epitope tags is necessary, but the assay can use the same target prepared for the ALA assay also.
For the CONFA assay, Tau target (300 nM) was prepared in buffer (Tris-HCl pH 7.4) and was incubated at room temperature for 3 hours with vehicle control (DMSO) and a dose range of a compound of the disclosure (0.098 uM-50 uM). […] AlphaView software (Protein Simple) was used for quantification of tau monomer and oligomers.

[2] = target: T1, recombinant human tau 4R2N; test: AlphaLisa Assay (ALA), primary screen for inhibition of tau oligomer formation; format: biochemical; details: tau target 300 nM, 4 hours at room temperature, compound 0.098 uM-50 uM
Source text: as §1
ALA Assay: AlphaLisa Assay (ALA) was used as a primary screen for identifying compounds that inhibit tau oligomer formation. It is a bead based assay that only gives signal when the beads are in close proximity to each other. When the tau monomer (target) is incubated it forms higher order aggregates (dimer, trimer, tetramer, etc) so that when the donor and acceptor beads bind to the epitope tags of tau they are in close proximity and generate signal.
Tau target (equal mixture of each construct at 300 nM) was prepared in buffer (Tris-HCl pH 7.4) and was incubated in 96-well plates at room temperature for 4 hours with vehicle control (DMSO) and a dose range of a compound of the disclosure (0.098 uM-50 uM). […] The positive control (non-incubated target) & blank (no tau) were prepared and mixed with beads in bead buffer and the plate was read immediately using the EnVision plate reader (Perkin Elmer).

[3] = Tolerability over the course of the htau mouse study; format: in vivo; details: all doses (10, 40, 100 mg/kg in feed), htau mice
Protocol: (§2) Four groups of htau mice (n=25 per group) were treated from 2.5 to 6.5 months of age with 0, 10, 40 and 100 mg/kg of the compound of Example 20 milled into feed. The study was performed independently and blinded. The primary endpoint of the study was reduction of insoluble tau aggregates in the brains of the mice with statistical significance. […] Methods for biochemical analyses of tau used in this study have been previously described (Acker CM et al. Sensitive quantitative assays for tau and phospho-tau in transgenic mouse models. Neurobiol Aging. 2013. 34:338). The results in FIG. 1 show in vivo efficacy of the compound in reducing tau pathology. Levels of insoluble tau in the cortices of htau mice treated with the compound of Example 20 were determined using the pan-tau monoclonal antibody (mAb) DA31. These values were normalized to total tau in the lysates of the cortex of each mouse. Error bars indicate standard error of the mean. The P values of comparisons of the groups treated with 10, 40 or 100 mg/kg of the compound of Example 20 to the control group (white bar, 0 mg/kg) are 0.0503 (horizontal hatch bar, 10 mg/kg), 0.0154 (diagonal hatch bar, 40 mg/kg) and 0.0488 (vertical hatch bar, 100 mg/kg). * indicates P value <0.05.

insoluble tau aggregates = test: Reduction of insoluble tau aggregates in the brains of treated htau mice; format: in vivo
Protocol: as §2

T1 sequence (P10636 other isoform, or with tags, fused parts or gaps): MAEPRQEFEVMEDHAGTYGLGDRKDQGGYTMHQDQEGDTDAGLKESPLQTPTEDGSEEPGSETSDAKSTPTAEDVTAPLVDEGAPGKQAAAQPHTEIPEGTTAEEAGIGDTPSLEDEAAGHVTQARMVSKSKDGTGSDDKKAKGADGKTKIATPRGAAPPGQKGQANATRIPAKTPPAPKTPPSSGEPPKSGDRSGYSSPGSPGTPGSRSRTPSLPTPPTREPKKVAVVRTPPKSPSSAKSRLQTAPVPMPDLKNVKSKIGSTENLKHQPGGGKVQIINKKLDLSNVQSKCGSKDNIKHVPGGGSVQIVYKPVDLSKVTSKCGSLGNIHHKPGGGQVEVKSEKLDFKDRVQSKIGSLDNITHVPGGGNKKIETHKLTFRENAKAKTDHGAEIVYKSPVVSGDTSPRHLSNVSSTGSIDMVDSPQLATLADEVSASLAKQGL

SMILES | pIC50 [1] | pIC50 [2] | tolerability over the course of the study [3] | toxic effects on weight, behavior or morbidity [3] | reduction of insoluble tau, statistical significance (insoluble tau aggregates; 40 mg/kg and 100 mg/kg doses, male htau mice) | in vivo activity: reduction of insoluble tau aggregates in the brains of treated htau mice (insoluble tau aggregates; FIG. 1 legend) | reduction of insoluble tau (insoluble tau aggregates; htau mice, 10, 40 and 100 mg/kg milled into feed, from 2.5 to 6.5 months of age)
CCc1ccc(-n2c(-c3cccnc3)nc3ccccc3c2=O)cc1O [Ex. 1, 3-(4-Ethyl-3-hydroxyphenyl)-2-(pyridin-3-yl)quinazolin-4(3H)-one] | 5.38 | 5.72 | – | – | – | – | –
Cc1ccc(-n2c(-c3cccnc3)nc3ccccc3c2=O)cc1O [Ex. 20, 3-(4-Methyl-3-Hydroxyphenyl)-2-(Pyridin-3-yl)Quinazolin-4(3H)-One Hydrochloride] | – | – | well tolerated | did not cause toxic effects on weight, behavior or morbidity | achieved with statistical significance | achieved with statistical significance | reduced insoluble tau at all doses
